Experimental data reported in patent US10023562B2, “Heteroaryl substituted pyridyl compounds useful as kinase modulators” (BRISTOL-MYERS SQUIBB COMPANY, priority 2012, dated 2018).

system: TLR2 induced IL-6 in peripheral blood mononuclear cells (PBMCs); assay: PBMC TLR2 Induced IL-6 Assay; format: cell-based; conditions: Homo sapiens, PBMC, 5 h, 10 μg/ml lipoteichoic acid for 5 hours, IL-6 by ELISA, values marked * are EC50, read-out: Cell EC50 (values marked *)
Experimental: PBMC TLR2 Induced IL-6 Assay Peripheral blood mononuclear cells (PBMCs) were isolated from human blood containing the anti-coagulant EDTA (2.5 mM) by centrifugation over a FICOLL® gradient. […] At the end of the culture, plates were centrifuged at 1800 rpm for 10 minutes to pellet the cells. Supernatants were harvested and analyzed for IL-6 levels by ELISA (BD Biosciences, San Jose, Calif.).

Row | SMILES | EC50 [nM]
1 | CC(=O)N[C@H]1CC[C@H](NC(=O)c2cnc(Nc3ncc(C#N)cc3Cl)cc2NC2CC2)CC1 [Example 67] | 457
2 | CC(C)Nc1cc(Nc2ncc(F)cc2F)ncc1C(=O)NC[C@@H](F)C(C)(C)O [Example 80] | 335
3 | CC(C)(O)[C@H](F)CNC(=O)c1cnc(Nc2ncc(Cl)cc2F)cc1NC1CC1 [Example 124] | 98
4 | CC(C)(O)[C@H](F)CNC(=O)c1cnc(Nc2ncc(C#N)cc2F)cc1NCC(F)(F)C(C)(C)O [Example 126] | 83
5 | CC(C)(O)[C@H](F)CNC(=O)c1cnc(Nc2ncc(C#N)cc2F)cc1Nc1cccc(S(N)(=O)=O)c1 [Example 128] | 224
6 | CC(C)(O)[C@H](F)CNC(=O)c1cnc(Nc2ncncc2Cl)cc1NC1CC1 [Example 105] | 336
7 | CC(C)(O)[C@H](F)CNC(=O)c1cnc(Nc2ncc(C(N)=O)cc2Cl)cc1NC1CCC(F)C1 (stereo partly shown) [Example 38] | 453
8 | CC(C)(O)[C@H](F)CNC(=O)c1cnc(Nc2ncc(F)cc2F)cc1NC1CCOCC1F (stereo partly shown) [Example 108] | 368
9 | CC(C)Nc1cc(Nc2ncc(C#N)cc2Cl)ncc1C(=O)N[C@H]1CC[C@H](O)CC1 [Example 92] | 269
10 | CC(C)(O)[C@H](F)CNC(=O)c1cnc(Nc2ncc(C#N)cc2Cl)cc1NC12CC(C1)C2 [Example 90] | 243
11 | CC(C)(O)[C@H](F)CNC(=O)c1cnc(Nc2ncncc2Cl)cc1NC1CCOCC1 [Example 95] | 501
12 | CC(C)CCNc1cc(Nc2ncc(C#N)cc2Cl)ncc1C(=O)NC[C@@H](F)C(C)(C)O [Example 140] | 241
13 | CC(C)(O)[C@H](F)CNC(=O)c1cnc(Nc2ncc(C#N)cn2)cc1N[C@H]1CCC[C@H]1F [Example 107] | 757
14 | CC(C)(O)[C@H](F)CNC(=O)c1cnc(Nc2ncc(C#N)cn2)cc1NC1CCC(F)C1 (stereo partly shown) [Example 86] | 349
15 | [2H]C([2H])([2H])OC(C)(C)[C@H](F)CNC(=O)c1cnc(Nc2ncc(C#N)cc2F)cc1NC(C)C [Example 37] | 95
16 | C[C@@H](CF)Nc1cc(Nc2ncc(C#N)cc2Cl)ncc1C(=O)NC[C@@H](F)C(C)(C)O [Example 39, 6-((3-chloro-5-cyanopyridin-2-yl)amino)-N—((R)-2-fluoro-3-hydroxy-3-methylbutyl)-4-(((S)-1-fluoropropan-2-yl)amino)nicotinamide] | 100

Row | SMILES | EC50 [nM]
17 | CC(C)Nc1cc(Nc2ccnc(N)n2)ncc1C(=O)NC[C@@H](F)C(C)(C)O [Example 131] | 137
18 | CC(C)(O)C(F)(F)CNC(=O)c1cnc(Nc2ncc(C#N)cc2Cl)cc1NC1CC1 [Example 43, 6-((3-chloro-5-cyanopyridin-2-yl)amino)-4-(cyclopropylamino)-N-(2,2-difluoro-3-hydroxy-3-methylbutyl)nicotinamide] | 169
19 | CC(C)(F)CNc1cc(Nc2ncc(C#N)cc2Cl)ncc1C(=O)NC[C@@H](F)C(C)(C)O [Example 46] | 206
20 | CC(=O)N[C@H]1CC[C@H](NC(=O)c2cnc(Nc3ncncc3Cl)cc2NC(C)C)CC1 [Example 106] | 433
21 | CC(C)Nc1cc(Nc2ncc(C#N)cc2F)ncc1C(=O)N[C@H]1CC[C@H](S(C)(=O)=O)CC1 [Example 33, 6-((5-cyano-3-fluoropyridin-2-yl)amino)-4-(isopropylamino)-N-((1R,4R)-4-(methylsulfonyl)cyclohexyl)nicotinamide] | 149
22 | CS(=O)(=O)[C@H]1CC[C@H](NC(=O)c2cnc(Nc3ncc(C#N)cc3Cl)cc2NC2CCOCC2)CC1 [Example 149] | 193
23 | Cc1cnc(Nc2cc(NC(C)C)c(C(=O)NC[C@@H](F)C(C)(C)O)cn2)nc1 [Example 113] | 558
24 | C[C@@H](CO)Nc1cc(Nc2ncc(C#N)cc2F)ncc1C(=O)NC[C@@H](F)C(C)(C)O [Example 91] | 178
25 | CC(C)(O)[C@H](F)CNC(=O)c1cnc(Nc2ncc(C#N)cc2F)cc1Nc1cccc(CO)c1 [Example 122] | 56
26 | C[C@@H](CO)Nc1cc(Nc2ncc(C#N)cn2)ncc1C(=O)NC[C@@H](F)C(C)(C)O [Example 101] | 380
27 | Cn1nnnc1-c1ccc(Nc2cc(Nc3ncc(C#N)cc3Cl)ncc2C(=O)NC[C@@H](F)C(C)(C)O)cc1 [Example 148] | 111
28 | CC(C)(O)[C@H](F)CNC(=O)c1cnc(Nc2ncc(C#N)cc2Cl)cc1N[C@H]1CC[C@](C)(O)CC1 [Example 150] | 62
29 | CCC(O)(CC)[C@H](F)CNC(=O)c1cnc(Nc2ncc(C#N)cn2)cc1NC(C)C [Example 117] | 202
30 | CC(C)(O)[C@H](F)CNC(=O)c1cnc(Nc2ncc(C#N)cc2Cl)cc1NCC(F)(F)F [Example 65] | 156
31 | CS(=O)(=O)[C@H]1CC[C@H](NC(=O)c2cnc(Nc3ncc(C#N)cc3F)cc2Nc2cccc(C(N)=O)c2)CC1 [Example 161] | 303

same assay, conditions: Homo sapiens, PBMC, 5 h, 10 μg/ml lipoteichoic acid for 5 hours, IL-6 by ELISA, values without asterisk, read-out: Cell IC50

Row | SMILES | IC50 [nM]
32 | CNC(=O)[C@H]1CC[C@H](NC(=O)c2cnc(Nc3ccc(C#N)cn3)cc2NC(C)C)CC1 [Example 5, 6-((5-cyano-2-pyridinyl)amino)-4-(isopropylamino)-N-(trans-4-(methylcarbamoyl)cyclohexyl)nicotinamide] | 588
33 | CNC(=O)[C@H]1CC[C@H](NC(=O)c2cnc(Nc3ncc(C#N)cc3F)cc2NC2CCOCC2)CC1 [Example 61] | 184
34 | CC(C)Nc1cc(Nc2ncc(C#N)cc2F)ncc1C(=O)NC[C@@H](F)C(C)(C)O [Example 17, 6-((5-cyano-3-fluoro-2-pyridinyl)amino)-N-((2R)-2-fluoro-3-hydroxy-3-methylbutyl)-4-(isopropylamino)nicotinamide] | 382
35 | CCNc1cc(Nc2ncc(C#N)cn2)ncc1C(=O)NC[C@@H](F)C(C)(C)O [Example 58] | 191
36 | CC(C)Nc1cc(Nc2ccc(=O)[nH]n2)ncc1C(=O)NC[C@@H](F)C(C)(C)O [Example 45] | 712
37 | CC(C)(O)[C@H](F)CNC(=O)c1cnc(Nc2ncncc2Cl)cc1NC1CCCOC1 (stereo partly shown) [Example 96] | 1550
38 | CNC(=O)[C@H]1CC[C@H](NC(=O)c2cnc(Nc3ncc(C#N)cc3Cl)cc2NC2CC2)CC1 [Example 60] | 52
39 | CC(=O)N[C@H]1CC[C@H](NC(=O)c2cnc(Nc3ncc(C#N)cc3F)cc2NC(C)C)CC1 [Example 19, N-(trans-4-acetamidocyclohexyl)-6-((5-cyano-3-fluoro-2-pyridinyl)amino)-4-(isopropylamino)nicotinamide] | 378
40 | CC(=O)N1CCC(NC(=O)c2cnc(Nc3ccc(C#N)cn3)cc2NC(C)C)CC1 [Example 8, N-(1-acetyl-4-piperidinyl)-6-((5-cyano-2-pyridinyl)amino)-4-(isopropylamino)nicotinamide] | 433
41 | CC(C)Nc1cc(Nc2ncc(C#N)cc2Cl)ncc1C(=O)NC[C@@H](F)C(C)(C)O [Example 12, 6-((3-chloro-5-cyano-2-pyridinyl)amino)-N-((2R)-2-fluoro-3-hydroxy-3-methylbutyl)-4-(isopropylamino)nicotinamide] | 50
42 | CCNc1cc(Nc2ccc(C#N)cn2)ncc1C(=O)NC[C@@H](F)C(C)(C)O [Example 4, 6-((5-cyano-2-pyridinyl)amino)-4-(ethylamino)-N-((2R)-2-fluoro-3-hydroxy-3-methylbutyl)nicotinamide] | 454
43 | CC(C)(O)[C@H](F)CNC(=O)c1cnc(Nc2ccc(C#N)cn2)cc1NCC(F)(F)F [Example 3, 6-((5-cyano-2-pyridinyl)amino)-N-((2R)-2-fluoro-3-hydroxy-3-methylbutyl)-4-((2,2,2-trifluoroethyl)amino)nicotinamide] | 789
44 | CC(C)Nc1cc(Nc2ncc(C#N)cn2)ncc1C(=O)NC[C@@H](F)C(C)(C)O [Example 22, 6-((5-cyano-2-pyrimidinyl)amino)-N-((2R)-2-fluoro-3-hydroxy-3-methylbutyl)-4-(isopropylamino)nicotinamide] | 342
45 | CC(C)Nc1cc(Nc2ccc(C#N)cn2)ncc1C(=O)NC[C@@H](F)C(C)(C)O [Example 2, 6-((5-cyano-2-pyridinyl)amino)-N-((2R)-2-fluoro-3-hydroxy-3-methylbutyl)-4-(isopropylamino)nicotinamide] | 453
46 | CC(C)Nc1cc(Nc2ccc(C#N)cn2)ncc1C(=O)N[C@H]1CC[C@H](C(=O)N[C@H]2C[C@H]2F)CC1 [Example 7, 6-((5-cyano-2-pyridinyl)amino)-N-(trans-4-(((1S,2R)-2-fluorocyclopropyl)carbamoyl)cyclohexyl)-4-(isopropylamino)nicotinamide] | 800
47 | CC(=O)N[C@H]1CC[C@H](NC(=O)c2cnc(Nc3ccc(C#N)cn3)cc2NC(C)C)CC1 [Example 9, N-(trans-4-acetamidocyclohexyl)-6-((5-cyano-2-pyridinyl)amino)-4-(isopropylamino)nicotinamide] | 116
48 | CC(=O)N[C@H]1CC[C@H](NC(=O)c2cnc(Nc3ncc(C#N)cc3Cl)cc2NC(C)C)CC1 [Example 15, N-((1r,4r)-4-acetamidocyclohexyl)-6-((3-chloro-5-cyanopyridin-2-yl)amino)-4-(isopropylamino)nicotinamide] | 245
49 | CC(C)Nc1cc(Nc2ccnc(NC3CCCOC3)n2)ncc1C(=O)NC[C@@H](F)C(C)(C)O (stereo partly drawn) [Example 25, N-((2R)-2-fluoro-3-hydroxy-3-methylbutyl)-4-(isopropylamino)-6-((2-(tetrahydro-2H-pyran-3-ylamino)-4-pyrimidinyl)amino)nicotinamide] | 372
50 | CC(C)(O)[C@H](F)CNC(=O)c1cnc(Nc2ncc(C#N)cc2F)cc1NC1CC1 [Example 47] | 69

same assay, conditions: human PBMC, 10 μg/ml lipoteichoic acid for 5 hours, IL-6 by ELISA; values marked * are EC50; read-out: Cell EC50 (values marked *)

Row | SMILES | EC50 [nM]
51 | CC(C)(O)[C@H](F)CNC(=O)c1cnc(Nc2ncc(C#N)cc2F)cc1NC1COC1 [Example 164] | 174
52 | Cc1cnc(Nc2cc(NC(C)C)c(C(=O)NC[C@@H](F)C(C)(C)O)cn2)c(F)c1 [Example 129] | 398
